# Molecular target: T1, human glucagon receptor (Homo sapiens, UniProt P47871)
# T1 construct: expressed in transfected cells; host or cells: CHO-K1 cells, stably transfected
# Test: Glucagon cAMP assay (Cisbio cAMP detection)
# Assay type: cell-based
# Method: The Cisbio cAMP detection assay is used to determine the ability of punitive glucagon antagonist to block glucagon induced cAMP production. Potential glucagon antagonists are re-suspended and diluted in 100% DMSO. Prior to use in the Glucagon cAMP assay 100×DMSO compound stocks are diluted 20× with DMEM-F12 media (Invitrogen) containing either 0.1% or 4% BSA. 2 uls of 5× compound stocks are spotted into the appropriate wells of low binding white solid bottom 384 well plates (Corning). 2 uls of 5% DMSO or known glucagon antagonist are added to each plate to define the assay window. CHOK1 cells stably transfected with the human glucagon receptor are removed from culture flasks with cell dissociation buffer. Cell pellets are re-suspended, at a concentration of 8.3e^5 cells/ml in DMEM-F12 with or without 4% BSA and 200 uM IBMX. 6 uls of cell suspensions are added to the assay plates. Plates are incubated for 20 min at room temperature prior to the addition of a 100 pM challenge dose of glucagon. On a separate plate glucagon dose response curves are run to determine the EC50 of glucagon. After a 30 min room temperature incubation the reaction is terminated by the addition of lysis buffer containing the cAMP detection reagents. Plates are incubated for an additional 60 min at room temperature prior to being read on the Perkin Elmer fluorescent plate reader. Raw is converted to nM of cAMP produced based on a cAMP standard curve. Converted data is then analyzed using the Pfizer data analysis program. IC50 values are determined from the generated sigmoidal dose response curves. Kb values are the calculated using a modified Cheng-Prusoff equation.
# T1 sequence (P47871 26-477): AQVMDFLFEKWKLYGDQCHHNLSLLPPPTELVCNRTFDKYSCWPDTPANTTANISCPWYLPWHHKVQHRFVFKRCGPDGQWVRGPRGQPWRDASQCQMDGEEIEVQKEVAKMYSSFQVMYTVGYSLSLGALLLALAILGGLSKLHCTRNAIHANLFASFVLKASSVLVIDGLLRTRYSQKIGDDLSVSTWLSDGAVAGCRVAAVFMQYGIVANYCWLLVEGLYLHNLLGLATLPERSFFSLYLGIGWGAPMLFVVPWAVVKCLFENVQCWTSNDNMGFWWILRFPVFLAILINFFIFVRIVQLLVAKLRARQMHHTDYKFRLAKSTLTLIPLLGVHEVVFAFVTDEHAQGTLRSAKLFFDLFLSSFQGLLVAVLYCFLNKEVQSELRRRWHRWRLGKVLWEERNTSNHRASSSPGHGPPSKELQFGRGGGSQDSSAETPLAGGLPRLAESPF
row,Compound,Kb
1,"Cc1ccc(C)c(-c2ccc(C(CC(C)C)Nc3ccc(C(=O)NCCC(=O)O)cn3)cc2)c1 (racemic) [Example 1.49, (+/−)-3-(6-(1-(2′,5′-dimethylbiphenyl-4-yl)-3-methylbutylamino)nicotinamido)propanoic acid]",0.75 µM
2,"CCC(Nc1cnc(C(=O)NCCC(=O)O)cn1)c1ccc(-c2ccc(C(F)(F)F)cc2)cc1 (racemic) [Example 1.31, (+/−)-3-(5-(1-(4′-(trifluoromethyl)biphenyl-4-yl)propylamino)pyrazine-2-carboxamido)propanoic acid]",0.54 µM
3,"Cc1cc(NC(CC(C)C)c2ccc(C(=O)NCCC(=O)O)cn2)cc(C)c1-c1ccc(C(F)(F)F)cc1 (single isomer, unassigned; isomer 1) [Example 2.2, 3-(6-(1-(2,6-dimethyl-4′-(trifluoromethyl)biphenyl-4-ylamino)-3-methylbutyl)nicotinamido)propanoic acid, Isomer 1]",0.054 µM
4,"CC(C)CC(Nc1ccc(C(=O)NCCC(=O)O)cn1)c1ccc(-c2ccccn2)cc1 (racemic) [Example 1.55, (+/−)-3-(6-(3-methyl-1-(4-(68yridine-2-yl)phenyl)butylamino)nicotinamido)propanoic acid]",4.8 µM
5,"CC(C)CC(Nc1ncc(C(=O)NCCC(=O)O)cn1)c1ccc(-c2ccc(C(F)(F)F)cc2)cc1 (single isomer, unassigned; isomer 1) [Example 1.5, 3-(2-(3-methyl-1-(4′-(trifluoromethyl)biphenyl-4-yl)butylamino)pyrimidine-5-carboxamido)propanoic acid, Isomer 1]",2.9 µM
6,"CC(C)CC(Nc1ccc(C(=O)NCCC(=O)O)cn1)c1ccc(-c2ccccc2Cl)cc1 (racemic) [Example 1.44, (+/−)-3-(6-(1-(2′-chlorobiphenyl-4-yl)-3-methylbutylamino)nicotinamido)propanoic acid]",0.58 µM
7,"CCCC(Nc1ccc(C(=O)NCCC(=O)O)cn1)c1ccc(-c2ccc(C(F)(F)F)cc2)cc1 (single isomer, unassigned; isomer 1) [Example 1.8, 3-(6-(1-(4′-(trifluoromethyl)biphenyl-4-yl)butylamino)nicotinamido) propanoic acid, Isomer 1]",1 µM
8,"CC(C)CC(Nc1ccc(C(=O)NCCC(=O)O)cn1)c1ccc(-c2ccc(S(C)(=O)=O)cc2)cc1 (racemic) [Example 1.59, (+/−)-3-(6-(3-methyl-1-(4′-(methylsulfonyl)biphenyl-4-yl)butylamino)nicotinamido)propanoic acid]",1.5 µM
9,CC(C)CC(Nc1ccc(C(=O)Nc2nn[nH]n2)cn1)c1ccc(-c2ccc(C(F)(F)F)cc2)cc1 (racemic) [Example 1.20],1 µM

# The next lines start with the values.
row,Kb,Compound
1,0.18 µM,"Cc1cc(NC(CC(C)C)c2ccc(C(=O)NCCC(=O)O)cn2)cnc1-c1ccc(Cl)cc1 (single isomer, unassigned; isomer 1) [Example 4.16, 3-(6-(1-(6-(4-chlorophenyl)-5-methylpyridin-3-ylamino)-3-methylbutyl)nicotinamido)propanoic acid, Isomer 1]"
2,0.031 µM,"O=C(O)CCNC(=O)c1ccc(NC(c2cnc(-c3ccc(C(F)(F)F)cc3)nc2)C2CCCCC2)nc1 (racemic) [Example 4.2, (+/−)-N-({6-[(cyclohexyl{2-[4-(trifluoromethyl)phenyl]pyrimidin-5-yl}methyl)amino]pyridin-3-yl}carbonyl)-beta-alanine]"
3,0.34 µM,"CCCC(Nc1ncc(C(=O)NCCC(=O)O)cn1)c1ccc(-c2ccc(C(F)(F)F)cc2)cc1 (stereo not shown) [Example 4.17, 3-(2-(1-(4′-(trifluoromethyl)biphenyl-4-yl)butylamino)pyrimidine-5-carboxamido)propanoic acid]"
4,1.5 µM,"CC(C)CC(Oc1ccc(-c2ccc(C(F)(F)F)cc2)cc1)c1ccc(C(=O)NCCC(=O)O)cn1 (racemic) [Example 3.1, (+/−)-3-(6-(3-methyl-1-(4′-(trifluoromethyl)biphenyl-4-Yloxy)butyl)nicotinamido)propanoic acid]"
